PubChem BioAssay AID1996
≈ marks a conversion by molar mass, not a printed value.

Details: buffer; pH 7.4; 200.0 µM

`Cc1cc(C(=O)NC2CCCN(Cc3ccc(Cl)cc3)C2)no1` (stereo not given) and `Cc1cc(C(=O)NCCc2ccc(Cl)cc2)c(C)o1` are within 1.5-fold of each other in solubility kinetic: 39.7 µg/mL (≈ 119 µM) for the first, 31.1 µg/mL (≈ 112 µM) for the second.

Compared with `O=C(NC(=S)Nc1ccccc1Br)c1ccco1`, `O=C(Nc1cccc(NC(=O)c2ccco2)n1)c1ccco1` is 2-fold higher in solubility kinetic: 3.1 µg/mL (≈ 9.53 µM) for the first, 6.1 µg/mL (≈ 20.5 µM) for the second.

Compared with `Cc1nc(Nc2ccccc2)sc1C(=O)c1ccc(F)cc1`, `Cc1cccnc1NC(=O)c1ccc(C(=O)c2ccccc2)cc1` is 18-fold higher in solubility kinetic: 2.4 µg/mL (≈ 7.68 µM) for the first, 42.5 µg/mL (≈ 134 µM) for the second.

`CC(C)(C)C(=O)N1CCN(C(=O)c2ccco2)CC1` and `CC(=O)Nc1ccccc1C(=O)N1CCN(c2cccc(C)c2C)CC1` cannot be ordered by solubility kinetic: > 39.6 µg/mL for the first, > 52.7 µg/mL for the second.

Compared with `CC1CCN(CC(=O)Nc2nc(-c3ccccc3)cs2)CC1`, `O=c1[nH]c(SCCN2CCOCC2)nc(O)c1-c1ccccc1` is 3.4-fold higher in solubility kinetic: 12.9 µg/mL (≈ 40.9 µM) for the first, 44.2 µg/mL (≈ 133 µM) for the second.

First: NC(=O)c1ccc(OCC(=O)N2CCNC2=O)cc1
Second: Cn1c(N)c(C(=O)COc2ccc(C#N)cc2)c(=O)n(C)c1=O
The solubility kinetic of the first is higher: > 39.5 µg/mL for the first, 9.4 µg/mL (≈ 29.9 µM) for the second.

Going from `COc1ccc(C(=O)O/N=C(\N)c2ccc(Cl)cc2)cc1` to `COc1ccc(CCNC(=O)c2ccccc2SC)cc1`, the solubility kinetic rises from 0.4 µg/mL (≈ 1.31 µM) to 27.4 µg/mL (≈ 90.9 µM) (68-fold).

First: O=C(COC(=O)c1c[nH]c2ccccc12)NC1CCCCC1
Second: O=C(COC(=O)c1cc(S(=O)(=O)N2CCOCC2)ccc1Cl)NCc1ccccc1
The solubility kinetic of the first is lower: 13.4 µg/mL (≈ 44.6 µM) for the first, > 67.9 µg/mL for the second.

First: O=S(=O)(NCCC1=CCCCC1)c1ccccc1Cl
Second: O=C1NCCCCC1NS(=O)(=O)c1ccc(Cl)cc1 (stereo not given)
The solubility kinetic of the first is lower: 22 µg/mL (≈ 73.4 µM) for the first, > 45.4 µg/mL for the second.

`COc1ccc(C(=O)NC(=S)N2CCOCC2)cc1OC` and `Cl.O=C(CCN1CCOCC1)NNC(=O)c1ccc(Cl)c([N+](=O)[O-])c1` cannot be ordered by solubility kinetic: > 46.6 µg/mL for the first, > 59 µg/mL for the second.

First: Cc1cc2nc(-c3ccc[nH]c3=O)n(Cc3cccc(F)c3)c2cc1C
Second: O=C(O)CCc1nc2cc(Cl)ccc2n(Cc2ccccc2)c1=O
The solubility kinetic of the first is lower: 1.3 µg/mL (≈ 3.74 µM) for the first, > 51.4 µg/mL for the second.

First: CCCCCCNC(=O)Cc1ccc(Br)cc1
Second: O=C(CSc1ccccc1)NCCCc1ccccc1
The solubility kinetic of the first is lower: 5 µg/mL (≈ 16.8 µM) for the first, > 42.8 µg/mL for the second.

First: Cc1nc(=S)c2c([nH]1)-c1ccccc1CC21CCCCC1
Second: Cc1cc(SCc2ccccc2F)nc(=O)[nH]1
The solubility kinetic of the first is lower: 0.3 µg/mL (≈ 1.01 µM) for the first, > 37.5 µg/mL for the second.

First: Cc1cc2c(sc3c(C)ccc(C)c32)c(C)n1.Cl
Second: CCc1noc(C)c1C(=O)Nc1nc2ccc(F)cc2s1
The solubility kinetic of the first is lower: < 0.6 µg/mL for the first, 27.2 µg/mL (≈ 89.1 µM) for the second.

`Nc1cn(C2OC(CO)C(O)C2O)c(=O)[nH]c1=O` (stereo not given) and `O=C(NCc1ccco1)c1ccc2[nH]c(=O)c(=O)[nH]c2c1` cannot be ordered by solubility kinetic: > 38.9 µg/mL for the first, > 42.8 µg/mL for the second.

Going from `O=C(NC1CCCCC1)C(=S)N1CCCC1` to `Cc1ccccc1OCCN1CCCC1`, the solubility kinetic falls from > 36.1 µg/mL to 19.5 µg/mL (≈ 95 µM).

`COc1ccc(NS(=O)(=O)c2cc(NC(=O)COc3ccccc3)ccc2N2CCOCC2)cc1` and `COc1ccc(N(CC(=O)NCCSc2ccccc2)S(=O)(=O)c2ccccc2)c(OC)c1` are within 1.5-fold of each other in solubility kinetic: 3.1 µg/mL (≈ 6.23 µM) for the first, 3.6 µg/mL (≈ 7.4 µM) for the second.

Going from `O=C1c2ccccc2CN1c1ccccc1` to `CCOC(=O)c1ccccc1CN1C(=O)c2ccccc2S1(=O)=O`, the solubility kinetic falls from 12.4 µg/mL (≈ 59.3 µM) to < 0.7 µg/mL.

First: CSc1nsc(SCC(=O)Nc2ccc(C(=O)O)cc2)n1
Second: CC(=O)c1ccc(NC(=S)NC(=O)/C=C/c2ccccc2)cc1
The solubility kinetic of the first is higher: > 51.2 µg/mL for the first, < 0.3 µg/mL for the second.

Compared with `CCN(CC(=O)Nc1c(F)cccc1F)C(=O)Cc1c[nH]c2ccccc12`, `O=C(Cc1ccccc1)Nc1c(Cl)ccc2nsnc12` is lower in solubility kinetic: > 55.7 µg/mL for the first, 4.9 µg/mL (≈ 16.1 µM) for the second.

Compared with `Nc1ccc(C(=O)OCc2ccncc2)cc1[N+](=O)[O-]`, `O=C(O)c1ccc(-c2cccc([N+](=O)[O-])c2)o1` is higher in solubility kinetic: 14 µg/mL (≈ 51.2 µM) for the first, > 35 µg/mL for the second.

Compared with `COc1cc2c(cc1OC)CN(c1ccc(F)cc1[N+](=O)[O-])CC2`, `COc1cc(C(=O)Cc2nc3ccccc3n2C)cc(OC)c1OC` is higher in solubility kinetic: 17.8 µg/mL (≈ 53.6 µM) for the first, > 51.1 µg/mL for the second.

Going from `Cc1cccc(OCC(=O)NCCNC(=O)c2ccncc2)c1` to `COc1cc(OC)cc(C(=O)NCC(=O)OCC(=O)NC(C)CCc2ccccc2)c1` (stereo not given), the solubility kinetic rises from 42.3 µg/mL (≈ 135 µM) to > 64.3 µg/mL.

Going from `CCCCC(=O)N1CCN(c2nc3ccc(F)cc3s2)CC1` to `O=C(NCC(c1ccco1)N1CCOCC1)c1ccc(F)cc1` (stereo not given), the solubility kinetic rises from 44.2 µg/mL (≈ 138 µM) to > 47.8 µg/mL.

First: O=C(NCC1CCCO1)c1ccccc1NS(=O)(=O)c1cccc([N+](=O)[O-])c1 (stereo not given)
Second: N#C/C(=C/Nc1ccccc1F)S(=O)(=O)c1ccc(Cl)cc1
The solubility kinetic of the first is higher: > 60.8 µg/mL for the first, 2.1 µg/mL (≈ 6.24 µM) for the second.

First: Oc1c(Cl)cc(CN2CCOCC2)c2cccnc12
Second: Cc1cc(SCC(=O)c2ccc(Cl)cc2)nc(=O)[nH]1
The solubility kinetic of the first is 2-fold higher: 33.6 µg/mL (≈ 121 µM) for the first, 16.5 µg/mL (≈ 56 µM) for the second.

Compared with `Cn1ncc([N+](=O)[O-])c1C(=O)Nc1ccccc1Cl`, `CN(C)c1ccc(C(=O)N=c2sccn2C)cc1[N+](=O)[O-]` is lower in solubility kinetic: > 42.1 µg/mL for the first, 1.4 µg/mL (≈ 4.57 µM) for the second.

First: COc1ccc(OC)c(/C=C/C(=O)OCC(=O)N2C(C)CCCC2C)c1 (stereo not given)
Second: Cc1ccc(NCc2ccco2)cc1C.O=C(O)C(=O)O
The solubility kinetic of the first is 9.4-fold higher: 44.1 µg/mL (≈ 122 µM) for the first, 4.7 µg/mL for the second.

Compared with `COc1ccc(/C=C2\SC(=N)N(c3ccc(F)cc3)C2=O)cc1`, `C=CCn1cnc2scc(-c3ccc(OC)cc3)c2c1=O` is higher in solubility kinetic: < 0.4 µg/mL for the first, 39 µg/mL (≈ 131 µM) for the second.

Compared with `CCC(C)c1ccc(NC(=O)c2ccco2)cc1` (stereo not given), `CCN1C(=O)CC(NNC(=O)c2ccccc2)C1=O` (stereo not given) is higher in solubility kinetic: 24.6 µg/mL (≈ 101 µM) for the first, > 39.2 µg/mL for the second.
